Structures can show the parent of a compound that is named as a salt. Where two headings read alike, the source gives them in different places.
What was measured:
[1] = target: alpha-2 receptor; assay: alpha-2 receptor radioligand binding, rat cerebral cortices, [3H]-rauwolscine; conditions: for Ki: rat cerebral cortices, [3H]-rauwolscine, read-out: Radioligand binding Ki α2; for Alpha-2 selectivity Ki α1/Ki α2: ratio Ki α1/Ki α2
[2] = tested on: norepinephrine uptake; assay: inhibition of [3H]-amine uptake by synaptosome preparations, hypothalamus (norepinephrine); assay type: biochemical, rat (male Sprague-Dawley); conditions: hypothalamus synaptosomes, [3H]-amine approx. 100 nM, 4 min, 37° C.; read-out: Biogenic amine uptake IC50 NE
Source text: (§1) The primary method of evaluation of biogenic amine uptake activity has been the in vitro determination of the inhibition of radioactive amine uptake by synaptosome preparations of brain tissue. Basic procedures used are those described by Snyder and Coyle (Snyder, S. H. and J. T. Coyle, Regional Differences in ^3 H-Norepinephrine and ^3 H-Dopamine Uptake into Rat Brain Homogenates, Journal of Pharmacology and Experimental Therapeutics 1969, 165: 78-86) and Wong et al. (Wong, D. T., J-S. Horng and R. W. Fuller, Kinetics of Norepinephrine Accumulation into Synaptosomes of Rat Brain-Effects of Amphetamine and Chloroamphetamines, Biochemical Pharmacology 1973, 22:311-322). Briefly, male Sprague-Dawley rats were decapitated and regions of their brains dissected according to the procedures of Glowinski and Iversen (Glowinski, J. and L. L. Iversen, Regional Studies of Catecholamines in the Rat Brain--I: The Disposition of [^3 H]-Norepinephrine, [^3 H]-Dopamine and [^3 H]-DOPA in Various Regions of the Brain, Journal of Neurochemistry 1966, 13: 655-669). Hypothalamus (norepinephrine-), cortex (serotonin) and striatum (dopamine-uptake) were homogenized in 10, 5, and 20 volumes, respectively,of 0.32M sucrose using a Teflon/glass Potter-Elvehjem tissue grinder. Samples were centrifuged at 1000×G for 10 minutes and the supernatants harvested and used in the assay. Aliquots of tissue ([…]) were added to 750 mL of Kreb's solution (composition in mM; sodium chloride 118, potassium chloride 4.0, calcium chloride 1.13, potassium dihydrogen phosphate 1.12, magnesium sulfate 1.20, sodium bicarbonate 2.4, D-glucose 5.0, disodium ethylenediaminetetraacetic acid 1.5, ascorbic acid 1.0, and Pargyline, 12.5 mM, pH=7.4, aerated with 95% oxygen, 5% carbon dioxide), 50 mL of test compound diluted in 0.3 mM ascorbic acid, and […] [^3 H]-amine, final concentration approximately 100 nM. Tissues were incubated for 4 minutes at 37° C., followed by rapid vacuum filtration over Whatman GF/B filters and washed with 50 mM Tris-HCl (pH=7.4). Nonspecific uptake was estimated in duplicate samples incubated at 0 ° C. Data were analyzed as described previously (J. F. DeBemardis, D. J. Kerkman, D. L. Arendsen, S. A. Buckner, J. J. Kyncl, and A. A. Hancock, Conformationally Defined Adrenergic Agents. 5. Resolution, Absolute Configuration, and Pharmacological Characterization of the Enantiomers of 2-[5,6-Dihyroxy-1,2,3,4-tetrahydro-1-1-naphthyl]imidazoline: A Potent Agonist at a-Adrenoceptors, Journal of Medicinal Chemistry 1987, 30: 1011-1017).

[3] = tested on: serotonin (5-HT) uptake; assay: inhibition of [3H]-amine uptake by synaptosome preparations, cortex (serotonin); assay type: biochemical, rat (male Sprague-Dawley); conditions: cortex synaptosomes, [3H]-amine approx. 100 nM, 4 min, 37° C.; read-out: Biogenic amine uptake IC50 5-HT
Source text: as §1

[4] = tested on: dopamine uptake; assay: inhibition of [3H]-amine uptake by synaptosome preparations, striatum (dopamine); assay type: biochemical, rat (male Sprague-Dawley); conditions: striatum synaptosomes, [3H]-amine approx. 100 nM, 4 min, 37° C.; read-out: Biogenic amine uptake IC50 DA
Source text: as §1

[5] = target: T1, alpha-1 receptor (Rattus norvegicus, UniProt P15823); assay: alpha-1 receptor radioligand binding, rat liver homogenates, [3H]-prazosin
T1 sequence (P15823 1-515): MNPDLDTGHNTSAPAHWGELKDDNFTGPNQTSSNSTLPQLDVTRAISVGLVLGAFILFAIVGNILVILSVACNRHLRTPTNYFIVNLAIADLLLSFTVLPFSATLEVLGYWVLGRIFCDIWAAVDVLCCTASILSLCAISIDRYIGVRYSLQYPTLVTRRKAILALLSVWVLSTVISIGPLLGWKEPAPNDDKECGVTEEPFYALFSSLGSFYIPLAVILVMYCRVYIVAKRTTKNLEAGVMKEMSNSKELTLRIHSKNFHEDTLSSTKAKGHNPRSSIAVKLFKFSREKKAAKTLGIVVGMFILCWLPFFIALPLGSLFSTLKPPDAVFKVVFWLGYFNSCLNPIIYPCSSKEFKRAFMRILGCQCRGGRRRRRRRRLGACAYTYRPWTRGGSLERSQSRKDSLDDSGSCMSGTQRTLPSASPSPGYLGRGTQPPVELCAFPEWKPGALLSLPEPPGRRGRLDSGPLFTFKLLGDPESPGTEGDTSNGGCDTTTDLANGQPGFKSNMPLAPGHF

| Compound | Ki [1] [nM] | Alpha-2 selectivity Ki α1/Ki α2 [1] | IC50 [2] [nM] | IC50 [3] [nM] | IC50 [4] [nM] | Ki [5] [nM] | Ki ([5]; read-out: Radioligand binding Ki α1, rat liver homogenates, [3H]-prazosin) [nM] |
| --- | --- | --- | --- | --- | --- | --- | --- |
| COc1ccc2c(c1)CCN(C)C2CN1CCC(c2ccccc2)C1 (stereo not shown) [Example 1, 6-Methoxy-2-methyl-1-(3-phenylpyrrolidino)methyl-1,2,3,4-tetrahydroisoquinoline dihydrochloride] | 6.2 | 19 | 4430 | 9180 | 28300 | 120 |  |
| COc1ccc2c(c1)CCN(C)C2CN(C)CCc1ccccc1 (stereo not shown) [Example 2, 6-Methoxy-2-methyl-1-((N-methyl-N-(2-phenylethyl)amino)methyl)-1,2,3,4-tetrahydroisoquinoline dihydrochloride] | 4.6 | 38 | 1240 | 7710 | 26500 | 175 |  |
| COc1cccc2c1CCN(C)C2CN1CCC(c2ccccc2)C1 (stereo not shown) [Example 3, 5-Methoxy-2-methyl-1-(3-phenylpyrrolidino)methyl-1,2,3,4-tetrahydroisoquinoline dihydrochloride] | 6 | 51 | 621 | 4450 | 9400 | 306 |  |
| CN(CCc1ccccc1)CC1c2ccc3c(c2CCN1C)OCO3 (stereo not shown) [Example 4, 5,6-Methylenedioxy-2-methyl-1-((N-methyl-N-(2-phenylethyl)amino)methyl)-1,2,3,4-tetrahydroisoquinoline dihydrochloride] | 2.6 | 238 | 885 | 2600 | 24700 | 621 |  |
| CN1CCc2c(ccc3c2OCO3)C1CN1CCC(c2ccccc2)C1 (stereo not shown) [Example 5, 5,6-Methylenedioxy-2-methyl-1-N-(3-phenylpyrrolinodino)methyl-1,2,3,4-tetrahydroisoquinoline dihydrochloride] | 4.3 | 42 | 249 | 2030 | 11400 | 180 |  |
| CN1CCc2cc3c(cc2C1CN1CCC(c2ccccc2)C1)OCO3 (stereo not shown) [Example 6, 6,7-Methylenedioxy-2-methyl-1-(3-phenylpyrrolidino)methyl-1,2,3,4-tetrahydroisoquinoline dimethanesulfonate] | 11.4 | 6 |  |  |  | 72 |  |
| CN(CCc1ccccc1)CC1c2cc3c(cc2CCN1C)OCO3 (stereo not shown) [Example 7, 6,7-Methylenedioxy-2-methyl-1-((N-methyl-N-(2-phenylethyl)amino)methyl)-1,2,3,4-tetrahydroisoquinoline dihydrochloride] | 6.4 | 96 | 589 | 6270 | 49800 | 613 |  |
| CN1CCc2c(ccc3c2OCO3)[C@@H]1CN1CC[C@H](c2ccccc2)C1 [Example 8, 5,6-Methylenedioxy-2-methyl-1(R)-(3'(R)-phenylpyrrolidino)methyl-1,2,3,4-tetrahydroisoquinoline dihydrochloride] | 2.5 | 178 | 489 | 1110 | 9300 |  | 446 |
| CN1CCc2c(ccc3c2OCO3)[C@@H]1CN1CC[C@@H](c2ccccc2)C1 [Example 9, 5,6-Methylenedioxy-2-methyl-1(R)-[3'(S)-phenylpyrrolidino]methyl-1,2,3,4-tetrahydroisoquinoline dihyrochloride] | 2.1 | 80 | 426 | 1580 | 9540 | 168 |  |
| CN1CCc2c(ccc3c2OCO3)[C@H]1CN1CC[C@H](c2ccccc2)C1 [Example 10, 5,6-Methylenedioxy-2-methyl-1(S)-[3'(R)-phenylpyrrolidino]methyl-1,2,3,4-tetrahydroisoquinoline dihydrochloride] | 20.2 | 18.5 | 214 | 754 | 11700 | 374 |  |
| CN1CCc2c(ccc3c2OCO3)[C@H]1CN1CC[C@@H](c2ccccc2)C1 [Example 11, 5,6-Methylenedioxy-2-methyl-1(S)-[3'(S)-phenylpyrrolidino]methyl-1,2,3,4-tetrahydroisoquinoline dihydrochloride] | 32.5 | 4.8 | 116 | 1700 | 4950 | 157 |  |
| CN(CCc1ccccc1)C[C@H]1c2ccc3c(c2CCN1C)OCO3 [Example 12, 5,6-Methylenedioxy-2-methyl-1(R)-(((N-methyl-N-phenylethyl)amino)methyl)-1,2,3,4-tetrahydroisoquinoline dihydrochloride] | 0.98 | 1040 | 1290 | 1410 | 25500 | 1020 |  |
| CN(CCc1ccccc1)C[C@@H]1c2ccc3c(c2CCN1C)OCO3 [Example 13, 5,6-Methylenedioxy-2-methyl-1(S)-(((N-methyl-N-phenylethyl)amino)methyl-1,2,3,4-tetrahydroisoquinolinedihydrochloride] | 7.1 | 76 | 210 | 2890 | 10600 | 542 |  |
| CNCCC(Oc1ccc(C(F)(F)F)cc1)c1ccccc1 (stereo not shown) [Fluoxetine, reference compound] |  |  | 1310 |  | 15200 |  |  |
| COC(=O)[C@H]1[C@H]2C[C@H]3c4[nH]c5ccccc5c4CCN3C[C@H]2CC[C@@H]1O [Rauw*, Rauwolscine, reference compound] |  |  | > 100 |  |  | 450 |  |

Source: patent publication US5389638A, “Tetrahydroisoquinolines as alpha-2 antagonists and biogenic amine uptake inhibitors” (Abbott Laboratories, priority 1993, dated 1995)
